For twelve compounds, IC50 results are on record in US20250129088A1, “CEREBLON E3 UBIQUITIN LIGASE INHIBITOR” (Gan & Lee Pharmaceuticals Co., Ltd., priority 2022, published 2025).

Common to all, as to type: cell-based
One assay has as its system A549 cells. Briefly: A549 cell proliferation inhibition, CCK-8. Particulars: Homo sapiens, 96 h, A549, 4 days. How it is done:
The complete medium required for A549 cells is F-12K (ATCC, Product number: 30-2004) basal medium containing 10% fetal bovine serum. A549 cells were seeded in a 96-well plate at a density of 2,800 cells/well, and the next day, different concentrations of the compound of the present invention and a positive control sample Ceritinib (source: Bide Pharmaceuticals) were prepared to treat the cells. The cells were incubated at 37° C., 5% CO2 cell incubator for 4 days. Cell viability was detected using the CCK-8 kit (Beyotime, Product number: C0040) according to the manufacturer's instructions. According to the inhibition rate, the GraphPad Prism software was used to calculate the IC50 value of each compound for 4 days, and the results are shown in Table 3.

The test system of the next assay is HeLa cells. Briefly: HeLa cell proliferation inhibition, CCK-8. To be noted: Homo sapiens, 72 h, 3 days. How it is done: The complete medium required for HeLa cells is DMEM high glucose (Gibco, Product number: 11995-065) basal medium containing 10% fetal bovine serum. HeLa cells were seeded in a 96-well plate at a density of 4,000 cells/well, and the next day, different concentrations of the compound of the present invention and the positive control sample Ceritinib (source: Bide Pharmaceuticals) were prepared to treat the cells. The cells were incubated at 37° C., 5% CO2 cell culture incubator for 3 days. Cell viability was detected using the CCK-8 kit (Beyotime, Product number: C0040) according to the manufacturer's instructions. According to the inhibition rate, GraphPad Prism software was used to calculate the IC50 value of each compound for 3 days, and the results are shown in Table 2.

The next assay deals with K562 cells. Briefly: K562 cell proliferation inhibition, CCK-8. To be noted: Homo sapiens, 96 h, K562, 4 days, Table 12, positive control dBET6. As for the experimental part: The complete medium required for K562 cells is IMDM (ATCC, Product number: 30-2005) basal medium containing 10% fetal bovine serum. K562 cells were seeded in a 96-well plate at a density of 7,500 cells/well, and different concentrations of the compound of the present invention and positive control samples Alisertib (source: Bide Pharmaceuticals) and dBET6 (source: Bide Pharmaceuticals) were prepared to treat the cells. The cells were incubated at a 37° C., 5% CO2 cell culture incubator for 4 days.
Cell viability was detected using the CCK-8 kit (Beyotime, Product number: C0040) according to the manufacturer's instructions. According to the inhibition rate, GraphPad Prism software was used to calculate the IC50 value of each compound for 4 days, and the results are shown in Table 11-12.

The test system of a further assay is MOLM-13 cells. Briefly: MOLM-13 cell proliferation inhibition, CCK-8. Particulars: Homo sapiens, 96 h, MOLM-13, 4 days. As for the experimental part: The complete medium required for MOLM-13 cells is 1640 (ATCC, Product number: 30-2001) basal medium containing 20% fetal bovine serum. MOLM-13 cells were seeded in a 96-well plate at a density of 7,500 cells/well, and different concentrations of the compounds of the present invention were prepared to treat the cells at the same time. The cells were incubated in a 37° C., 5% CO2 cell culture incubator for 4 days. Cell viability was detected using the CCK-8 kit (Beyotime, Product number: C0040) according to the manufacturer's instructions. According to the inhibition rate, GraphPad Prism software was used to calculate the IC50 value of each compound for 4 days, and the results are shown in Table 9-10.

A further assay concerns MV-4-11 cells. Description: MV-4-11 cell proliferation inhibition, CCK-8. To be noted: Homo sapiens, MV4-11, 96 h, MV-4-11, 4 days, Table 7, positive control Palbociclib. As for the experimental part:
The complete medium required for MV-4-11 cells is IMDM (ATCC, Product number: 30-2005) basal medium containing 10% fetal bovine serum. MV-4-11 cells were seeded in a 96-well plate at a density of 7,500 cells/well, and different concentrations of the compound of the present invention and positive control samples Alisertib (source: Bide Pharmaceuticals), Palbociclib (source: Bide Pharmaceuticals), Ibrutinib (source Bide Pharmaceuticals) treated cells. The cells were incubated in a 37° C., 5% CO2 cell incubator for 4 days. Cell viability was detected using the CCK-8 kit (Beyotime, Product number: C0040) according to the manufacturer's instructions. According to the inhibition rate, GraphPad Prism software was used to calculate the IC50 value of each compound for 4 days, and the results are shown in Table 6-8.

The term IC50 denotes the midpoint of a concentration-inhibition curve. In the case of `Cc1cc(Nc2ncc(Cl)c(Nc3ccccc3S(=O)(=O)C(C)C)n2)c(OC(C)C)cc1C1CCNCC1` [Ceritinib, reference compound], the figures for the IC50 in the assay with A549 cells and in the assay on HeLa cells were 4.31 µM and 5.99 µM, respectively.
Take `Cc1nc(Nc2ncc(C(=O)Nc3c(C)cccc3Cl)s2)cc(N2CCN(CCOCCC(=O)N3CCC4(CCc5cc6c(cc5O4)C(=O)N(C4CCC(=O)NC4=O)C6=O)CC3)CC2)n1` (stereo not drawn) [PROTAC 9, N-(2-chloro-6-methylphenyl)-2-((6-(4-(2-(3-(7′-(2,6-dioxopiperidin-3-yl)-6′,8′-dioxo-4′,6′,7′,8′-tetrahydro-3′H-spiro[piperidine-4,2′-pyrano[2,3-f]isoindol]-1-yl)-3-oxopropoxy)ethyl)piperazin-1-yl)-2-methylpyrimidin-4-yl)amino)thiazole-5-carboxamide]: the results for the IC50 with K562 cells and in the assay on MOLM-13 cells (Table 9) were 0.016 µM and 1.11 µM, respectively.
With `Cc1nc(Nc2ncc(C(=O)Nc3c(C)cccc3Cl)s2)cc(N2CCN(CCOCCC(=O)N3CCC4(CC3)COc3cc5c(cc3C4)C(=O)N(C3CCC(=O)NC3=O)C5=O)CC2)n1` (stereo not drawn) [PROTAC 10, N-(2-chloro-6-methylphenyl)-2-((6-(4-(2-(3-(7′-(2,6-dioxopiperidin-3-yl)-6′,8′-dioxo-4′,6′,7′,8′-tetrahydro-2′H-spiro[piperidine-4,3′-pyrano[2,3-f]isoindole]-1-yl)-3-oxopropoxy)ethyl)piperazin-1-yl)-2-methylpyrimidin-4-yl)amino)thiazole-5-carboxamide], the IC50 with K562 cells came out at 0.017 µM; with MOLM-13 cells (Table 9), 1.05 µM.
The like results for `Cc1nc(Nc2ncc(C(=O)Nc3c(C)cccc3Cl)s2)cc(N2CCN(CCOCCC(=O)N3CCC4(CC3)COc3cc5c(cc34)C(=O)N(C3CCC(=O)NC3=O)C5=O)CC2)n1` (stereo not drawn) [PROTAC 12, N-(2-chloro-6-methylphenyl)-2-((6-(4-(2-(3-(6-(2,6-dioxopiperidin-3-yl)-5,7-dioxo-6,7-dihydro-2H,5H-spiro[furo[2,3-f]isoindole-3,4′-piperidin]-1′-yl)-3-oxopropoxy)ethyl)piperazin-1-yl)-2-methylpyrimidin-4-yl)amino)thiazole-5-carboxamide] were, in that order, 0.04 µM and 4.77 µM.
With `Cc1cc(Nc2ncc(Cl)c(Nc3ccccc3S(=O)(=O)C(C)C)n2)c(OC(C)C)cc1C1CCN(CCOCCC(=O)N2CCC3(CCc4cc5c(cc4O3)CN(C3CCC(=O)NC3=O)C5=O)CC2)CC1` (stereo not drawn) [PROTAC 25], the IC50 in the assay on A549 cells came to 7.02 µM; in the assay on HeLa cells, 2.19 µM.
For `Cc1cc(Nc2ncc(Cl)c(Nc3ccccc3S(=O)(=O)C(C)C)n2)c(OC(C)C)cc1C1CCN(CCOCCC(=O)N2CCC3(CCc4cc5c(cc4O3)C(=O)N(C3CCC(=O)NC3=O)C5)CC2)CC1` (stereo not drawn) [PROTAC 26, 3-(1-(3-(2-(4-(4-((5-chloro-4-((2-(isopropylsulfonyl)phenyl)amino)pyrimidin-2-yl)amino)-5-isopropoxy-2-methylphenyl)piperidin-1-yl)ethoxy)propionyl)-8′-oxo-3′,4′,6′,8′-tetrahydro-7′H-spiro[piperidine-4,2′-pyrano[2,3-f]isoindole]-7′-yl)piperidine-2,6-dione], in that order: 4.27 µM and 4.33 µM.
The like results for `Cc1cc(Nc2ncc(Cl)c(Nc3ccccc3S(=O)(=O)C(C)C)n2)c(OC(C)C)cc1C1CCN(CCOCCC(=O)N2CC3(CCc4cc5c(cc4O3)CN(C3CCC(=O)NC3=O)C5=O)C2)CC1` (stereo not drawn) [PROTAC 27, 3-(1-(3-(2-(4-(4-((5-chloro-4-((2-(isopropylsulfonyl)phenyl)amino)pyrimidin-2-yl)amino)-5-isopropoxy-2-methylphenyl)piperidin-1-yl)ethoxy)propionyl)-6′-oxo-3′,4′,6′,8′-tetrahydro-7′H-spiro[azetidine-3,2′-pyrano[2,3-f]isoindole]-7′-yl)piperidine-2,6-dione] were, in that order, 11.4 µM and 4.27 µM.
For `Cc1cc(Nc2ncc(Cl)c(Nc3ccccc3S(=O)(=O)C(C)C)n2)c(OC(C)C)cc1C1CCN(CCOCCC(=O)N2CC3(CCc4cc5c(cc4O3)C(=O)N(C3CCC(=O)NC3=O)C5)C2)CC1` (stereo not drawn) [PROTAC 28, 3-(1-(3-(2-(4-(4-((5-chloro-4-((2-(isopropylsulfonyl)phenyl)amino)pyrimidin-2-yl)amino)-5-isopropoxy-2-methylphenyl)piperidin-1-yl)ethoxy)propionyl)-8′-oxo-3′,4′,6′,8′-tetrahydro-7′H-spiro[azetidine-3,2′-pyrano[2,3-f]isoindole]-7′-yl)piperidine-2,6-dione], in that order: 6.81 µM and 4.36 µM.
Turning to `Cc1cc(Nc2ncc(Cl)c(Nc3ccccc3S(=O)(=O)C(C)C)n2)c(OC(C)C)cc1C1CCN(CCOCCC(=O)N2CCC3(CCc4cc5c(cc4O3)C(=O)N(C3CCC(=O)NC3=O)C5=O)CC2)CC1` (stereo not drawn) [PROTAC 29, 1-(3-(2-(4-(4-((5-chloro-4-((2-(isopropylsulfonyl)phenyl)amino)pyrimidin-2-yl)amino)-5-isopropoxy-2-methylphenyl)piperidin-1-yl)ethoxy)propionyl)-7′-(2,6-dioxopiperidin-3-yl)-3′,4′-dihydro-6′H-spiro[piperidine-4,2′-pyrano[2,3-f]isoindole]-6′,8′(7′H)-dione], the IC50 was 4.34 µM with A549 cells and 5.41 µM with HeLa cells.
Regarding `CC(=O)c1c(C)c2cnc(Nc3ccc(N4CCN(CCOCCC(=O)N5CCC6(CCc7cc8c(cc7O6)CN(C6CCC(=O)NC6=O)C8=O)CC5)CC4)cn3)nc2n(C2CCCC2)c1=O` (stereo not drawn) [PROTAC 43, 3-(1-(3-(2-(4-(6-((6-acetyl-8-cyclopentyl-5-methyl-7-oxo-7,8-dihydropyridone[2,3-d]pyrimidin-2-yl)amino)pyridin-3-yl)piperazin-1-yl)ethoxy)propionyl)-6′-oxo-6′,8′-dihydro-3′H,7′H-spiro[piperidine-4,2′-[1,4]dioxino[2,3-f]isoindole]-7′-yl)piperidine-2,6-dione], the IC50 amounted to 2.49 µM with MV-4-11 cells and 1.87 µM in the assay on MOLM-13 cells (Table 10).
As for `CC(=O)c1c(C)c2cnc(Nc3ccc(N4CCN(CCOCCC(=O)N5CC6(CCc7cc8c(cc7O6)C(=O)N(C6CCC(=O)NC6=O)C8)C5)CC4)cn3)nc2n(C2CCCC2)c1=O` (stereo not drawn) [PROTAC 44, 3-(1-(3-(2-(4-(6-((6-acetyl-8-cyclopentyl-5-methyl-7-oxo-7,8-dihydropyridone[2,3-d]pyrimidin-2-yl)amino)pyridin-3-yl)piperazin-1-yl)ethoxy)propionyl)-8′-oxo-3′,4′,6′,8′-tetrahydro-7′H-spiro[azetidine-3,2′-pyrano[2,3-f]isoindole]-7′-yl)piperidine-2,6-dione], the values for the IC50 with MV-4-11 cells and in the assay with MOLM-13 cells (Table 10) were 3.31 µM and 1.31 µM, respectively.
Regarding `CC(=O)c1c(C)c2cnc(Nc3ccc(N4CCN(CCOCCC(=O)N5CC6(CCc7cc8c(cc7O6)CN(C6CCC(=O)NC6=O)C8=O)C5)CC4)cn3)nc2n(C2CCCC2)c1=O` (stereo not drawn) [PROTAC 45, 3-(1-(3-(2-(4-(6-((6-acetyl-8-cyclopentyl-5-methyl-7-oxo-7,8-dihydropyridone[2,3-d]pyrimidin-2-yl)amino)pyridin-3-yl)piperazin-1-yl)ethoxy)propionyl)-6′-oxo-3′,4′,6′,8′-tetrahydro-7′H-spiro[azetidine-3,2′-pyrano[2,3-f]isoindole]-7′-yl)piperidine-2,6-dione], the IC50 in the assay on MV-4-11 cells turned out to be 4.25 µM; in the assay on MOLM-13 cells (Table 10), 4.34 µM.
